The source of these data is ChEMBL document CHEMBL5528082 (J Med Chem, 2024).

In brackets after ≈: the same amount, converted by molar mass. Activity calls are given as the source filed them. No cut-off for these calls is given here.

What is called Tmax is the time at which the peak concentration occurs. By bioavailability is commonly meant the share of a dose that reaches the circulation, judged against a reference dose that is usually intravenous. High values mean good availability, low ones poor availability. For orientation: MIC means the lowest concentration that inhibits growth of the organism. A lower MIC goes with inhibition by little substance.

Series [1] deals with Staphylococcus aureus. Put plainly: Synergistic antibacterial activity against Staphylococcus aureus ATCC 25923 assessed as fractional inhibitory concentration index incubated for 24 hrs in presence of SMX by CLSI based broth microdilution assay. Type of series: functional. (Broth dilution looks for growth in wells or tubes with falling amounts of substance.)
Series [2] deals with Staphylococcus aureus. Put plainly: Antibacterial activity against methicillin-resistant Staphylococcus aureus ATCC 33591 infected in C57 mouse model assessed as wound healing at 2 to 10 mg/kg administered once a day for 3 days consecutively and measured after 24 hrs post-last dose. Type of series: functional, organism-based. The settings on record: dose 2-10 mg/kg, time 4.0 day.

Series [3] in a line: Metabolic stability in human liver microsomes assessed as half life at 3 uM measured for 120 mins by LC-MS/MS analysis. The settings on record: 2 h. Type of series: ADME, Microsome. A general note: Microsomes from liver hold many membrane-bound enzymes, among them those of drug oxidation.
Series [4] deals with Staphylococcus aureus. The series can be described thus: Antibacterial activity against methicillin-resistant Staphylococcus aureus ATCC 33591 infected in C57 mouse model assessed as reduction in bacterial count at 2 to 10 mg/kg administered once a day for 3 days consecutively and measured after 24 hrs post-last dose by colony counting method. Type of series: functional, organism-based. To be noted: dose 2-10 mg/kg, time 4.0 day.

A short description of series [5]: Tmax in Sprague-Dawley rat at 15 mg/kg, po measured for 24 hrs by LC/MS analysis. Type of series: ADME, organism-based. To be noted: in vivo.
Series [6] in a line: Acute toxicity in C57 mouse assessed as damage in kidney at 800 mg/kg, po measured after 1 week by H and E staining based analysis. Type of series: organism-based. To be noted: in vivo, 168 h, time 1 weeks.
Series [7] is described as follows: Oral bioavailability in Sprague-Dawley rat at 15 mg/kg measured for 24 hrs by LC/MS analysis. Type of series: ADME, organism-based. The settings on record: in vivo.
Series [8] in a line: Acute toxicity in C57 mouse assessed as liver inflammation at 800 mg/kg, po measured after 1 week by biochemical analysis. The settings on record: in vivo, 168 h, time 1 weeks. Type of series: organism-based.
The subject of series [9] is Staphylococcus aureus. Put plainly: Antibacterial activity against TMP-resistant Staphylococcus aureus BHKS 227 incubated for 24 hrs by CLSI based broth microdilution assay. Type of series: functional.
A short description of series [10]: Acute toxicity in C57 mouse assessed as damage in heart at 800 mg/kg, po measured after 1 week by H and E staining based analysis. Type of series: organism-based. The settings on record: in vivo, 168 h, time 1 weeks.
Series [11] in a line: Metabolic stability in mouse liver microsomes assessed as half life at 3 uM measured for 120 mins by LC-MS/MS analysis. Type of series: ADME, Microsome. To be noted: 2 h.
Series [12] can be described thus: Acute toxicity in C57 mouse assessed as damage in liver at 800 mg/kg, po measured after 1 week by H and E staining based analysis. Type of series: organism-based. To be noted: in vivo, 168 h, time 1 weeks.

For `CC(C)c1cc(OCC2CC2)c(I)cc1Oc1cnc(N)nc1N`, the “fractional inhibitory concentration index (FICI)” value in series [1] is on record as 0.066. In addition, the outcome in series [2] and in series [4] was Active. For the same molecule, the results for the t1/2 in series [3] and in series [11] were 2.435 h and 0.437 h, respectively. Also, the Tmax in series [5] worked out at 1.33 h. In addition, the Activity entry in series [6] is on record as “Non-Toxic”; in series [8] it was “Toxic”; in series [10] it was “Non-Toxic”; in [12], “Non-Toxic”. The bioavailability in [7] amounted to 40.7%. The molecule further came in with an MIC in series [9] of 0.5 mg/L (≈ 1.14 µM).
